Values of other authors in patent US20210186960A1, “MODULATORS OF INDOLEAMINE 2,3-DIOXYGENASE” (GLAXOSMITHKLINE INTELLECTUAL PROPERTY DEVELOPMENT LIMITED, priority 2017, published 2021).

Experiments:
[1] = system: PANO2 pancreatic cells; settings: orally dosed, cited from earlier work
[2] = system: conversion of T cells into CD4+FoxP3+ Tregs; settings: co-culture of DCs and naive CD4+CD25- T cells; cited from earlier work

NS(=O)(=O)NCCNc1nonc1C(=NO)Nc1ccc(F)c(Br)c1 [INCB204360]
inhibition of tumor growth ([1]; PANO2 syngeneic model, immunocompetent mice): significant dose-dependent inhibition of tumor growth | effect on tumor growth ([1]; same tumor implanted in immune-deficient mice): without effect | conversion of T cells into CD4+FoxP3+ Tregs [2]: blocked the conversion
